Laboratory results taken from US10918645B2 (LIFEARC, priority 2016, dated 2021).

What was measured:
Format in all cases: biochemical
Conditions in all cases: 1 μM inhibitor concentration
PKBa = PKBa (Homo sapiens (Human), UniProt P31749, S473D); assay: PKBa kinase selectivity assay
Description: ΔPH-PKBa-S473D (5-20 mU diluted in 50 mM Tris pH 7.5, 0.1 mM EGTA, 0.1% b-mercaptoethanol, 1 mg/ml BSA) is assayed against a modified Crosstide peptide […] in a final volume of 25.5 μl containing 50 mM Tris pH 7.5, 0.05% b-mercaptoethanol, 30 μM substrate peptide, 10 mM magnesium acetate and 0.005 mM [33P-g-ATP](50-1000 cpm/pmole) and incubated for 30 min at room temperature. Assays are stopped by addition of 5 μl of 0.5 M (3%) orthophosphoric acid and then harvested onto P81 Unifilter plates with a wash buffer of 50 mM orthophosphoric acid.

p38aMAPK = p38aMAPK (Homo sapiens (Human), UniProt Q16539); assay: p38aMAPK kinase selectivity assay
Description: (§1) SAPK 2a/p38 (5-20 mU diluted in 50 mM Tris pH 7.5, 0.1 mM EGTA, 0.1 mM Na3VO4, 0.1% b-mercaptoethanol, 1 mg/ml BSA) is assayed against MBP in a final volume of 25.5 μl containing 25 mM Tris pH 7.5, 0.1 mM EGTA, 0.33 mg/ml MBP, 10 mM magnesium acetate and 0.05 mM [33P-g-ATP] (50-1000 cpm/pmole) and incubated for 30 min at room temperature. Assays are stopped by addition of 5 μl of 0.5 M (3%) orthophosphoric acid and then harvested onto P81 Unifilter plates with a wash buffer of 50 mM orthophosphoric acid.

FGF-R1 = FGF-R1 (Homo sapiens (Human), UniProt P11362); assay: FGF-R1 kinase selectivity assay
Description: (§2) FGF-R1 (5-20 mU diluted in 50 mM Tris pH 7.5, 0.1 mM EGTA, 1 mg/ml BSA) is assayed against a substrate peptide (Poly Glut Tyr) in a final volume of 25.5 μl containing 50 mM Tris pH 7.5, 1 mg/ml substrate peptide, 10 mM magnesium acetate and 0.02 mM [33P-g-ATP] (50-1000 cpm/pmole) and incubated for 30 min at room temperature. Assays are stopped by addition of 5 μl of 0.5 M (3%) orthophosphoric acid and then harvested onto P81 Unifilter plates with a wash buffer of 50 mM orthophosphoric acid.

SRPK1 = SRPK1 (Homo sapiens (Human), UniProt Q96SB4); assay: SRPK1 kinase selectivity assay
Description: 5-20 mU of SRPK1 (diluted in 50 mM Tris (pH 7.5), 0.1 mM EGTA, 1 mg/ml BSA, 0.1%, b-Mercaptoethanol) is assayed against substrate peptide ([…]) in a final volume of […] containing 50 mM Tris (pH 7.5), 0.1 mM EGTA, 0.1%, b-Mercaptoethanol, 300 μM substrate peptide, 10 mM magnesium acetate and 0.05 mM [33P-g-ATP](500-1000 cpm/pmole) and incubated for 30 mins at room temperature. Assays are stopped by addition of 5 μl of 0.5M (3%) orthophosphoric acid. Assays are harvested onto P81 Unifilter plates using a wash buffer of 50 mM orthophosphoric acid.

PKCz = PKCz (Homo sapiens (Human), UniProt Q05513); assay: PKCz kinase selectivity assay
Description: PKC zeta (5-20 mU diluted in 50 mM Tris pH 7.5, 0.1 mM EGTA, 0.1% b-mercaptoethanol, 1 mg/ml BSA, 100 μM Vanadate) is assayed against a substrate peptide ([…]) in a final volume of 25.5 μl containing 50 mM Tris pH 7.5, 0.05% b-mercaptoethanol, […], 300 μM substrate peptide, 10 mM magnesium acetate and 0.005 mM [33P-g-ATP] (50-1000 cpm/pmole) and incubated for 30 min at room temperature. Assays are stopped by addition of 5 μl of 0.5 M (3%) orthophosphoric acid and then harvested onto P81 Unifilter plates with a wash buffer of 50 mM orthophosphoric acid.

MINK1 = MINK1 (Homo sapiens (Human), UniProt Q8N4C8); assay: MINK1 kinase selectivity assay
Description: as §1, with “MINK1 (5-20” for “SAPK 2a/p38 (5-20”, “EGTA,” for “EGTA, 0.1 mM Na3VO4,”, “0.1% β-mercaptoethanol,” for “0.1% b-mercaptoethanol,”, “containing 50” for “containing 25”, “mM [33P-γ-ATP]” for “mM [33P-g-ATP]”

ROCK2 = ROCK2 (Homo sapiens (Human), UniProt O75116); assay: ROCK2 kinase selectivity assay
Description: as §2, with “ROCK-II (ROKa) (5-20” for “FGF-R1 (5-20”, “EGTA, 0.1% b-mercaptoethanol,” for “EGTA,”, “against Long S6” for “against a”, “peptide ([…])” for “peptide (Poly Glut Tyr)”, “7.5, 0.1 mM EGTA, 30 μM Long S6” for “7.5, 1 mg/ml”

PHK = PHK kinase selectivity assay
Description: […] (5-20 mU diluted in 50 mM Na-b-glycerophosphate pH 7.0, 0.1% b-mercaptoethanol) is assayed against phosphorylase b peptide ([…]) in a final volume of 25.5 μl containing 50 mM Tris pH 8.6, 50 mM Na-b-glycerophosphate, 0.04 mM CaCl2, phosphorylase b peptide (0.196 mM), 10 mM magnesium acetate, 0.02 mM [33P-g-ATP] (500-1000 cpm/pmole) then incubated for 15 min at room temperature. Assays are stopped by addition of 5 μl of 0.5 M (3%) orthophosphoric acid and then harvested onto P81 Unifilter plates with a wash buffer of 50 mM orthophosphoric acid.

Chain of PKCz (Q05513 whole entry): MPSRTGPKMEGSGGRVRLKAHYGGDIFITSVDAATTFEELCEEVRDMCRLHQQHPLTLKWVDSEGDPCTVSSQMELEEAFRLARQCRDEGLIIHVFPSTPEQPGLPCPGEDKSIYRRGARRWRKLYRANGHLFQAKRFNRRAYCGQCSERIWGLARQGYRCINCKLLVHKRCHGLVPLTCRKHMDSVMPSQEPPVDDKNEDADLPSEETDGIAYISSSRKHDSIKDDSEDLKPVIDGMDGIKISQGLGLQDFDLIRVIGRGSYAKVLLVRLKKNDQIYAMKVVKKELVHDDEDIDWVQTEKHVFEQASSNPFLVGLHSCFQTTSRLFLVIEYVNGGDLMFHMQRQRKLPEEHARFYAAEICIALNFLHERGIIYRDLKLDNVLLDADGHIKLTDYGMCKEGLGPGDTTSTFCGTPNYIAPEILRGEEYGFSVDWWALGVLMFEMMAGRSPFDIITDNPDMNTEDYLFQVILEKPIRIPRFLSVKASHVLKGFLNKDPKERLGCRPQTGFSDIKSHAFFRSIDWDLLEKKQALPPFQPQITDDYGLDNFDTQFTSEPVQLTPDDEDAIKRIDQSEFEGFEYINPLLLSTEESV
Chain of ROCK2 (O75116 whole entry, species assumed): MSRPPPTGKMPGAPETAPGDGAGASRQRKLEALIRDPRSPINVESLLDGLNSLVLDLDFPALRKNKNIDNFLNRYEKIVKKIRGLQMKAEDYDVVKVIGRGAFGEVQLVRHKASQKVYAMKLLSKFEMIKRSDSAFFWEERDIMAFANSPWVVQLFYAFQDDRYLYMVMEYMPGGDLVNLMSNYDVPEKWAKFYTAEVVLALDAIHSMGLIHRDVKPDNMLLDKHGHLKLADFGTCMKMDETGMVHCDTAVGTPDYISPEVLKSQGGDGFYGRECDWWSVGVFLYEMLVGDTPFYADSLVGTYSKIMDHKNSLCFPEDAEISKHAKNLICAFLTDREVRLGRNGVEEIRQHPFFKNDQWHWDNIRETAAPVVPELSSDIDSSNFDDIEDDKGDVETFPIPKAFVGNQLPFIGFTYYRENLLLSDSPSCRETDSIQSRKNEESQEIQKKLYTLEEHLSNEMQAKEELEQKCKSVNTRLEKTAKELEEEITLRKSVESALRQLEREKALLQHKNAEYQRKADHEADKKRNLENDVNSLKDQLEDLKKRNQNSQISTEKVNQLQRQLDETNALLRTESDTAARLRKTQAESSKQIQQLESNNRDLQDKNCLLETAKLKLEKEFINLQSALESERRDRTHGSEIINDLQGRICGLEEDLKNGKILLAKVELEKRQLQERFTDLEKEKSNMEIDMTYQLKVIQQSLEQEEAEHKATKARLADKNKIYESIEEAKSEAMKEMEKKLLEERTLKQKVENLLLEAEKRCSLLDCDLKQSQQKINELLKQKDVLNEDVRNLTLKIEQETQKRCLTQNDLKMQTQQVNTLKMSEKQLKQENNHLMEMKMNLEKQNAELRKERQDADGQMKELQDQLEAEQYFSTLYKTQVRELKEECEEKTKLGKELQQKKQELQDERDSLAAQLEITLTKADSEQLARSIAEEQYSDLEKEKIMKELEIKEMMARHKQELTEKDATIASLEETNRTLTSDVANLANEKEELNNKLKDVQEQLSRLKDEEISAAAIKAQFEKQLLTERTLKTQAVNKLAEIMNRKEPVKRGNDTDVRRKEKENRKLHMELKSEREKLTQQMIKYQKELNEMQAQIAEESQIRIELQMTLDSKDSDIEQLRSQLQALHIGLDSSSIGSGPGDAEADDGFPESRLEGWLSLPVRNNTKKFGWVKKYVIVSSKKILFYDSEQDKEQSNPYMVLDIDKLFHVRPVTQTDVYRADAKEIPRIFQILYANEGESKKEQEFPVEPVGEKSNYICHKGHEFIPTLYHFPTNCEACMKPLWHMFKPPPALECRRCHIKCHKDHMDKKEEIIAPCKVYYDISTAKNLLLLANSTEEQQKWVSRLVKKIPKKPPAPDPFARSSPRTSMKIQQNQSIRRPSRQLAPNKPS
Chain of SRPK1 (Q96SB4 whole entry, species assumed): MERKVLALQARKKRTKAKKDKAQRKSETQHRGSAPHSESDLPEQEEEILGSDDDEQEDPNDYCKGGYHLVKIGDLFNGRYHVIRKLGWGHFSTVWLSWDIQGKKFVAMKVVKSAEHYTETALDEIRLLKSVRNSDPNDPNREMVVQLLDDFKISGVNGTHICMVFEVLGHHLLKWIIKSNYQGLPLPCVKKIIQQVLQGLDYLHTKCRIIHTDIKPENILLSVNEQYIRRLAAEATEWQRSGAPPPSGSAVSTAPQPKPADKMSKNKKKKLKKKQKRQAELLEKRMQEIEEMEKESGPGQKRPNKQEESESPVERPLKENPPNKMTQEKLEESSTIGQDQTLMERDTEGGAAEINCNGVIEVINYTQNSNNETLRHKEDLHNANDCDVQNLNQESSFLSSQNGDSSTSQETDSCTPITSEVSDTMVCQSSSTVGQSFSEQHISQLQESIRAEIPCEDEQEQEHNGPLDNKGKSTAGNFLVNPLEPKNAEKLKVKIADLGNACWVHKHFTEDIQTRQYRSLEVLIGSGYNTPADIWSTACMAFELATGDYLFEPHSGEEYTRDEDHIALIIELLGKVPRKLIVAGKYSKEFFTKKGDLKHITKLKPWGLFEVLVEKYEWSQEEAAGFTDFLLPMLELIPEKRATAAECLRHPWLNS
Chain of PKBa (P31749 118-480 S473D): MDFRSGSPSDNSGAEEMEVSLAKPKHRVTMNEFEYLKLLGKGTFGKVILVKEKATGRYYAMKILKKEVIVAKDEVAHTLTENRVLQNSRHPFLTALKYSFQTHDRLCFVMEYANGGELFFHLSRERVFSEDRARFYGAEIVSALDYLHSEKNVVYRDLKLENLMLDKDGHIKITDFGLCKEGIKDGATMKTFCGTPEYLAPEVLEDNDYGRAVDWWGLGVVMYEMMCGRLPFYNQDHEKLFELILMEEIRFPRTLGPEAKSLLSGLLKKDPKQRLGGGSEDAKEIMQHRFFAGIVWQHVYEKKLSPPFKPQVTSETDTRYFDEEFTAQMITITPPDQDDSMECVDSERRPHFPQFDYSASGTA
Chain of FGF-R1 (P11362 22-822, species assumed): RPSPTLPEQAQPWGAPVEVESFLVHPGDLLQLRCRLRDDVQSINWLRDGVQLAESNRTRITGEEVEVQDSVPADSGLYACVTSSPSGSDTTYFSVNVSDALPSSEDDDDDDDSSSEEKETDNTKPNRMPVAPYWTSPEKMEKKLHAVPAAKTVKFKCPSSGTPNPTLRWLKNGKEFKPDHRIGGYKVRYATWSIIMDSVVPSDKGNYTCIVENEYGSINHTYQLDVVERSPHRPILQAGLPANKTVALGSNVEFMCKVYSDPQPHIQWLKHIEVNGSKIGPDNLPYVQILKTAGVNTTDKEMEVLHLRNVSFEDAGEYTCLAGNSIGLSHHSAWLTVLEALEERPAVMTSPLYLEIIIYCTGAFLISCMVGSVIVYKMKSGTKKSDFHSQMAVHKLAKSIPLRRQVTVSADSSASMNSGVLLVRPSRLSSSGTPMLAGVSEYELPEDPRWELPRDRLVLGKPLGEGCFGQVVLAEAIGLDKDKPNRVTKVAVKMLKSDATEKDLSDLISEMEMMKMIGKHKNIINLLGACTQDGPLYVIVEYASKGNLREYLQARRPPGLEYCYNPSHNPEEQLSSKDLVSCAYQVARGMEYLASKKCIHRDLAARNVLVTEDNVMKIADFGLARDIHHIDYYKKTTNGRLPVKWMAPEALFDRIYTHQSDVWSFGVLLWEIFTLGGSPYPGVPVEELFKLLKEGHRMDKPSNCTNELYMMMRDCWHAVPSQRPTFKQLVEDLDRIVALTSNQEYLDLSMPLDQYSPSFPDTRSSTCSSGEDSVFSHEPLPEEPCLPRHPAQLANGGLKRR
Chain of p38aMAPK (Q16539 whole entry): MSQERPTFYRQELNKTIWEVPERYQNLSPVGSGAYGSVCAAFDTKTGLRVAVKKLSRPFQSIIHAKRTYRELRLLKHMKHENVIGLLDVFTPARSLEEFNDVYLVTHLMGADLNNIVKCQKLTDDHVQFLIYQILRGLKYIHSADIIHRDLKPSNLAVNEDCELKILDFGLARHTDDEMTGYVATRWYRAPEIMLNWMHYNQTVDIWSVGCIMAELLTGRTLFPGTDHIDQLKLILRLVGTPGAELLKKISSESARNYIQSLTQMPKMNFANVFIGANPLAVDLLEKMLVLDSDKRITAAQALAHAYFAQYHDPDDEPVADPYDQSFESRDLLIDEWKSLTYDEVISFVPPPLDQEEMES

Compound | percentage inhibition of PKBa (PKBa) | percentage inhibition of p38aMAPK (p38aMAPK) | percentage inhibition of FGF-R1 (FGF-R1) | percentage inhibition of SRPK1 (SRPK1) | percentage inhibition of PKCz (PKCz) | percentage inhibition of MINK1 (MINK1) | percentage inhibition of ROCK2 (ROCK2) | percentage inhibition of PHK (PHK)
c1cc2[nH]nc3c2c(n1)N(C1CCC1)CCC3 [Example 22, 6-cyclobutyl-6,7,8,9-tetrahydro-2H-1,2,5,6-tetraazabenzo[cd]azulene] | 3 percentage | 4 percentage | 11 percentage | 0 percentage | 0 percentage | 0 percentage | 5 percentage | 41 percentage
c1cc2[nH]nc3c2c(n1)N(C1CCCC1)CCC3 [Example 23, 6-cyclopentyl-6,7,8,9-tetrahydro-2H-1,2,5,6-tetraazabenzo[cd]azulene] | 0 percentage | 0 percentage | 19 percentage | 0 percentage | 0 percentage | 0 percentage | 0 percentage | 
c1cc2[nH]nc3c2c(n1)N(C1CCOCC1)CCC3 [Example 29, 6-(tetrahydro-2H-pyran-4-yl)-6,7,8,9-tetrahydro-2H-1,2,5,6-tetraazabenzo[cd]azulene] | 0 percentage | 0 percentage | 12 percentage | 0 percentage | 0 percentage | 0 percentage | 11 percentage | 35 percentage
CN1CCC(N2Cc3ccccc3-c3n[nH]c4ccnc2c34)CC1 [Example 55] | 1 percentage | 6 percentage | 9 percentage | 0 percentage | 0 percentage | 12 percentage | 14 percentage | 73 percentage
CC(C)n1ncc2c1CN(C1CCN(C)CC1)c1nccc3[nH]nc-2c13 [Example 68] | 0 percentage | 0 percentage | 35 percentage | 0 percentage | 1 percentage | 7 percentage | 21 percentage | 43 percentage
